Measured values published in US4704384A, “Aziridinyl quinone antitumor agents” (priority 1981, dated 1987).
“And” between values parts separate entries of the source, which are not always exact repeats. Equal entries are not always repeated. “Also recorded” adds a separate entry of the source. Where two headings read alike, the source gives them in different places.

Columns and labels:
[1] = system: lymphoid leukemia L1210; details: prior testing; cited from earlier work
[2] = system: B16 melanocarcinoma; type: in vivo, murine; details: for ILS: QD1-9, at OD, Table IX; for OD: QD1-9, Table IX
[3] = system: lymphoid leukemia L1210; type: in vivo, murine; details: for ILS: QD1-9, at OD
Excerpt: (§1) A third IC tumor model, the ependymoblastoma system, was also studied. This system requires intracerebral implantation of a solid tumor fragment while the IC L1210 and IC P388 systems utilize IC inoculated ascites tumor fluid. All three use IP drug treatment however. […] Cures (survivors from the group of six mice on the last day of the experiment) are indicated.

[4] = system: lymphoid leukemia L1210; details: for OD / ILS / animals alive per 6 / T-C: Table VIII; for T-C: QD1-9, day 5, at OD; for survivors, IP L1210: parentheses, per 6
Excerpt: ^b Ip tumor implantation, ip QD19 treatment schedule.
^e ILS = [(treated survival + control survival) × 100%] - 100%
The L1210, P388 and B16 test systems described in Table II utilize intraperitoneal (IP) tumor implantation and IP drug treatment while the Lewis lung system employs subcutaneous tumor implantation and IP treatment. All three CNS tumor models (Table III) use intracerebral (IC) tumor implantation and IP treatment.
Aqueous saline solution (0.9%) was used as the drug vehicle. Normally, five doses were employed per experiment with the top dose chosen to produce toxicity. The lower doses were 50% of each preceeding dose.
Consistent with NCI antitumor test protocols, intraperitoneal (IP) administration of the drug was employed with all five tumor systems investigated. Tumor implantation was IP in the systems designated IP leukemia L1210 and P388 as well as B16 melanoma. Intracerebral (IC) tumor implantation was utilized in the IC L1210 and ependymoblastoma tumor systems.

[5] = system: lymphocytic leukemia P388; type: in vivo, murine; details: for OD: QD1-9, Table IX; for ILS: QD1-9, at OD
[6] = system: ependymoblastoma; type: in vivo, murine; details: for OD: QD1-5, Table X; for ILS: QD1-5, at OD; for ILS / animals alive per 6: Table X; for animals alive per 6: QD1-5, day 60, at OD; for survivors, EM: Table XI, parentheses, per 6
Excerpt: ^c Ic tumor implantation, ip QD15 treatment schedule.
as §1

| SMILES | activity in B16 melanoma [2] | ILS [2] | activity in IC L1210 [3] | OD ([3]; QD1-9, Table X) | ILS ([3]; Table X) | OD ([4]; Day 1 only (1 injection)) | OD ([4]; Q4D (day 1,5,9)) | ILS ([4]; Q4D, at OD) | OD ([4]; QD1-9 (9 injections)) | ILS ([4]; QD1-9, at OD) | animals alive per 6 ([4]; QD1-9, day 30, at OD) | OD [5] | ILS ([5]; Table IX) | activity in ependymoblastoma [6] | OD [6] | ILS [6] | animals alive per 6 [6] | survivors, EM [6] | activity in IP L1210 [4] | animals alive per 6 ([4]; Q4D, day 30, at OD) | other results |
| --- | --- | --- | --- | --- | --- | --- | --- | --- | --- | --- | --- | --- | --- | --- | --- | --- | --- | --- | --- | --- | --- |
| NC1=C(Cl)C(=O)C(N)=C(Cl)C1=O [Compound 19] | – | – | – | – | – | – | – | – | – | – | – | – | – | – | – | – | – | – | – | – | activity in L1210 [1]: inactive |
| CNC1=C(N2CC2)C(=O)C(NC)=C(N2CC2)C1=O [Compound 34] | approached minimal reproducible activity | 39% and 29% | most active; also recorded: significant activity | 0.4 mg/kg/injection and 0.2 mg/kg/injection | 68% and 60% | 0.7 mg/kg/injection | 0.8 mg/kg/injection and 0.4 mg/kg/injection | 57% and 56% | 0.2 mg/kg/injection | 73% and 61% | 1 | 0.2 mg/kg/injection and 0.1 mg/kg/injection | 95% and 69% | among the most active materials | 0.2 mg/kg/injection and 0.4 mg/kg/injection | 219% and 218% | 5 and 4 | 5 | – | – | – |
| O=C1C(N2CCN(CCO)CC2)=C(N2CC2)C(=O)C(N2CCN(CCO)CC2)=C1N1CC1 [Compound 47] | – | 22% | marginal IC L1210 activity | 2.0 mg/kg/injection and 1.5 mg/kg/injection | 43% and 41% | 4.0 mg/kg/injection | 4.0 mg/kg/injection and 2.0 mg/kg/injection | 180% | 1.0 mg/kg/injection and 0.5 mg/kg/injection | – | 1 | 0.5 mg/kg/injection and 1.0 mg/kg/injection | 143% | – | 1.0 mg/kg/injection | 75% | – | – | produced cures; also recorded: superior | 3 and 4 | T-C ([3]; QD1-9, day 5, at OD, Table X): -1.4 grams; T-C [4]: -1.7 grams; ILS (%) IP L1210 ([4]; Table XI, outstanding activity): 180%; survivors, IP L1210 ([4]; Table XI): 3; activity in IP P388 [5]: very active producing multiple cures; animals alive per 6 ([5]; QD1-9, day 30, at OD, Table IX): 3 and 6; survivors, P388 ([5]; Table XI, parentheses, per 6): 3 |
| NC(=O)CNC1=C(N2CC2)C(=O)C(NCC(N)=O)=C(N2CC2)C1=O [Compound 40] | – | 37% and 22% | – | – | 16% | 10.0 mg/kg/injection | 8.0 mg/kg/injection | – | 10.0 mg/kg/injection | 92% and 91% | – | 2.0 mg/kg/injection | 85% and 71% | – | 2.0 mg/kg/injection and 1.0 mg/kg/injection | 64% and 50% | – | – | – | – | ILS ([4]; Day 1 only, at OD): 21% and 15% |
| CCNC1=C(N2CC2)C(=O)C(NCC)=C(N2CC2)C1=O [Compound 35, 2,5-DIAZIRIDINYL-3,6-BIS(ETHYLAMINO)-1,4-BENZOQUINONE] | – | 26% and 24% | – | 3.0 mg/kg/injection | 44% and 40% | 1.5 mg/kg/injection | 3.0 mg/kg/injection and 1.5 mg/kg/injection | 75% and 57% | 1.5 mg/kg/injection | 112% and 91% | 2 and 1 | – | 160% and 103% | most active | 1.5 mg/kg/injection | 218% and 187% | 2 | 2 | activity appears to peak | – | OD [2]: 0.4 mg/kg/injection and 0.7 mg/kg/injection; ILS ([4]; Day 1 only, at OD): 68% and 54%; T-C [4]: -3.3 grams; survivors, IP L1210 ([4]; Table XI): 2 |
| O=C1C(N2CC2)=C(N2CCCC(O)C2)C(=O)C(N2CC2)=C1N1CCCC(O)C1 (stereo not drawn) [Compound 45] | approached minimal reproducible activity | 40% and 37% | – | – | – | – | 6.0 mg/kg/injection and 4.0 mg/kg/injection | 104% and 84% | 3.0 mg/kg/injection | 59% and 44% | – | 1.0 mg/kg/injection | 95% and 78% | – | – | 64% and 48% | – | – | – | 2 | OD [2]: 1.0 mg/kg/injection; OD ([3]; Q4D(1,5,9), Table X): 8.0 mg/kg/injection and 6.0 mg/kg/injection |
